{"source": "patent US20230234897A1", "about": "“USE OF POLYAMINES, TYRAMINE AND/OR A PLANT EXTRACT CONTAINING SAME TO STABILISE MICROORGANISMS” (AGRO INNOVATION INTERNATIONAL, priority 2020, published 2023)", "system": "Azotobacter chroococcum", "assay": "Growth of Azotobacter chroococcum with or without osmotic stress (0.3 M NaCl), glycine betaine versus extract", "assay_type": "cell-based", "settings": "for Bacterial concentration at 72 h / Survival rate relative to the strain under non-stressing conditions without addition of the extract / Survival rate relative to the strain under salt stress conditions, without addition of the extract: extract at 10 g of polyamines/kg of medium, glycine betaine quantity not given", "method": "The effect of each of the extracts prepared according to example 1a), 1b) or 1c) was studied on the growth of various bacterial strains, under conditions with or without thermal stress, osmotic stress or acid/base stress. The extracts obtained in examples 1a), 1b) or 1c) were added to a culture medium in different quantities, in order to obtain the desired quantities of polyamines and/or tyramine.\nThe study was carried out in Spizizen Minimal Medium SMM culture broth ((NH4)2SO4: 2 g/L, K2HPO4: 14 g/L, KH2PO4: 6 g/L, MgSO4: 0.2 g/L, C6H5Na3O7·2H2O: 1 g/L, D-glucose: 5 g/L).\nThe starting inoculate for each strain was calibrated by OD measurement (620 nm) in order to obtain an initial concentration of approximately 10^3-10^4 CFU/mL. The strains were incubated for 24 to 72 h. Counts were performed in TSA agar (Tryptone Soya Agar) at TO and after 24 h, 48 h or 72 h incubation at 30° C. (+/−1° C.), according to the studied strains.\nFor each of the strains, the survival rate in the presence of the extract and/or stress was calculated relative to the bacterial concentration obtained at the end of the kinetics (at T=24 h, 48 h or 72 h) in the control mode containing the strain alone, under non-stressed conditions, without adding the extract. Similarly, the survival rate in the presence or absence of the extract and/or stress was calculated relative to the bacterial concentration obtained at the end of the kinetics in the mode containing the strain alone, under stress conditions, without adding the extract.\nThe strain Azotobacter chroococcum was tested under osmotic stress conditions, in other words by adding 0.3 M NaCl to the culture medium at time T=0.\nThe glycine betaine, known as an osmoprotectant, was tested in comparison with the Ascophyllum nodosum extract prepared according to example 1a).", "key": {"[1]": {"settings": "non-stressing conditions (no NaCl), 72 h"}}}
{"smiles": "C[N+](C)(C)CC(=O)[O-]", "note": "[glycine betaine]", "values": [{"measurement": "Bacterial concentration at 72 h", "setting": "[1]", "value": "1.1 · 10^8 CFU/mL"}, {"measurement": "Survival rate relative to the strain under non-stressing conditions without addition of the extract", "setting": "[1]", "value": 0.3, "unit": "log"}, {"measurement": "Survival rate relative to the strain under salt stress conditions, without addition of the extract", "setting": "[1]", "value": 5.1, "unit": "log"}, {"measurement": "stabilisation of Azotobacter chroococcum under osmotic stress", "setting": "osmotic stress 0.3 M NaCl", "value": "no stabilisation is observed"}, {"measurement": "loss in the bacterial concentration after 72 h incubation relative to the stress conditions", "setting": "salt stress 0.3 M NaCl, 72 h", "value": 0.8, "unit": "logs"}, {"measurement": "Bacterial concentration at 72 h", "setting": "salt stress 0.3 M NaCl, 72 h", "value": "1.4 · 10^2 CFU/mL"}, {"measurement": "Survival rate relative to the strain under non-stressing conditions without addition of the extract", "setting": "salt stress 0.3 M NaCl, 72 h", "value": "−5.6", "unit": "log"}, {"measurement": "Survival rate relative to the strain under salt stress conditions, without addition of the extract", "setting": "salt stress 0.3 M NaCl, 72 h", "value": "−0.8", "unit": "log"}]}
